Results reported in patent publication US9439432B2, “Phenylisoxazoline-based compound having herbicidal activity and use thereof” (MOGHU RESEARCH CENTER LTD, priority 2011, dated 2016).

Tests used:
Format in all cases: in vivo
[1] = system: Corn; assay: Pre-emergence treatment, phytotoxicity to corn; conditions: 500 g/ha, 4 weeks after spraying, scale 0 to 10 (0: no effects, 10: complete death)
Description: (§1) A rectangular plastic pot having a surface area of 300 cm^2 was filled with sandy loam soil and mixed bed soil which were mixed at a ratio of 1:1, and then, barnyardrass (Echinochloa crusgalli), large crabgrass (Digitaria sanguinalis), blackgrass (Alopecurus myosuroides), and annual bluegrass (Poa annua), which are grass weeds, were seeded thereto. In a pot that was prepared as described above, seeds of corn, soybean, cotton, wheat, and rice were seeded. The pots were irrigated, and one day after, chemicals were sprayed thereto. The spraying was performed by using a track sprayer (R&D Sprayer, USA) equipped with a Teejet 8002 (Spraying Systems Co., USA) nozzle, and a spraying amount was adjusted at 300 L/ha. A spraying solution was prepared by dissolving test materials or references in acetone and adding the same amount of 0.2%(v/v) tween 20 aqueous solution thereto. Application rates were 500, 250, 125, and 62.5 g/ha. The pots were placed in a greenhouse in which during day, the temperature was maintained at a temperature of 25 to 30° C., and during night, the temperature was maintained at a temperature of 15 to 25° C., and the pots were periodically irrigated. Four weeks after the spraying the test materials or References, effects and phytotoxicity of the respective weeds and crops were evaluated in a scale of 0 to 10 (0: no effects, 10: complete death), and results thereof are shown in Table 4 below.

[2] = system: Soybean; assay: Pre-emergence treatment, phytotoxicity to soybean; conditions: 500 g/ha, 4 weeks after spraying, scale 0 to 10 (0: no effects, 10: complete death)
Description: as §1

[3] = system: Cotton; assay: Pre-emergence treatment, phytotoxicity to cotton; conditions: 500 g/ha, 4 weeks after spraying, scale 0 to 10 (0: no effects, 10: complete death)
Description: as §1

[4] = system: Wheat; assay: Pre-emergence treatment, phytotoxicity to wheat; conditions: 500 g/ha, 4 weeks after spraying, scale 0 to 10 (0: no effects, 10: complete death)
Description: as §1

[5] = system: Rice; assay: Pre-emergence treatment, phytotoxicity to rice; conditions: 500 g/ha, 4 weeks after spraying, scale 0 to 10 (0: no effects, 10: complete death)
Description: as §1

[6] = system: Echinochloa crusgalli; assay: Pre-emergence treatment, herbicidal efficacy on barnyardgrass; conditions: 4 weeks after spraying
Description: as §1

[7] = system: Digitaria sanguinalis; assay: Pre-emergence treatment, herbicidal efficacy on large crabgrass; conditions: 4 weeks after spraying, scale 0 to 10
Description: as §1

[8] = system: Poa annua; assay: Pre-emergence treatment, herbicidal efficacy on annual bluegrass; conditions: 4 weeks after spraying, scale 0 to 10
Description: as §1

[9] = system: Alopecurus myosuroides; assay: Pre-emergence treatment, herbicidal efficacy on blackgrass; conditions: 4 weeks after spraying, scale 0 to 10
Description: as §1

[10] = system: Corn; assay: Post-emergence treatment, phytotoxicity to corn; conditions: post-emergence (about 3 leaf stage), 1,000 g/ha, 4 weeks after spraying, scale 0 to 10 (0: no effects, 10: complete death)
Description: as §1
(§2) Pots containing crops and weeds were prepared in the same manner as in Example 7, and then, in the second week in which crops and weeds entered into about 3 leaf stage, the test materials and the references were sprayed thereto in the same manner as described above. The rates were 1,000, 500, 250, and 125 g/ha. Four weeks after the spraying of the test materials or the references, herbicidal efficacy and phytotoxicity to the respective weeds and crops were evaluated in a scale of 0 to 10 (0: no effects, 10: complete death).

[11] = system: Soybean; assay: Post-emergence treatment, phytotoxicity to soybean; conditions: post-emergence (about 3 leaf stage), 1,000 g/ha, 4 weeks after spraying, scale 0 to 10 (0: no effects, 10: complete death)
Description: as §1, §2

[12] = system: Cotton; assay: Post-emergence treatment, phytotoxicity to cotton; conditions: post-emergence (about 3 leaf stage), 1,000 g/ha, 4 weeks after spraying, scale 0 to 10 (0: no effects, 10: complete death)
Description: as §1, §2

[13] = system: Wheat; assay: Post-emergence treatment, phytotoxicity to wheat; conditions: post-emergence (about 3 leaf stage), 1,000 g/ha, 4 weeks after spraying, scale 0 to 10 (0: no effects, 10: complete death)
Description: as §1, §2

[14] = system: Rice; assay: Post-emergence treatment, phytotoxicity to rice; conditions: post-emergence (about 3 leaf stage), 1,000 g/ha, 4 weeks after spraying, scale 0 to 10 (0: no effects, 10: complete death)
Description: as §1, §2

[15] = system: Echinochloa crusgalli; assay: Post-emergence treatment, herbicidal efficacy on barnyardgrass; conditions: 4 weeks after spraying, scale 0 to 10
Description: as §1, §2

[16] = system: Digitaria sanguinalis; assay: Post-emergence treatment, herbicidal efficacy on large crabgrass; conditions: 4 weeks after spraying, scale 0 to 10
Description: as §1, §2

[17] = system: Poa annua; assay: Post-emergence treatment, herbicidal efficacy on annual bluegrass; conditions: 4 weeks after spraying, scale 0 to 10
Description: as §1, §2

[18] = system: Alopecurus myosuroides; assay: Post-emergence treatment, herbicidal efficacy on blackgrass; conditions: 4 weeks after spraying, scale 0 to 10
Description: as §1, §2

[19] = system: grass weeds including barnyardrass, large crabgrass, and annual bluegrass; assay: Pre-emergence treatment, grass weeds overall; conditions: relative to reference compounds
Description: as §1

[20] = 500 g/ha, scale 0 to 10 (0: no effects, 10: complete death)

## CC1(COCc2c(F)cccc2F)CC(c2ccccc2Cl)=NO1 (stereo not shown) [Compound 2, 3-(2-chlorophenyl)-5-((2,6-difluorobenzyloxy)methyl)-5-methyl-4,5-dihydroisoxazole]
[1]
  Phytotoxicity, Corn: 0
[2]
  Phytotoxicity, Soybean: 0
[3]
  Phytotoxicity, Cotton: 0
[4]
  Phytotoxicity, Wheat: 0
[5]
  Phytotoxicity, Rice: 0
[6]; 62.5 g/ha, scale 0 to 10
  Herbicidal efficacy, Echinochloa crusgalli: 9
[6]; 125 g/ha, scale 0 to 10
  Herbicidal efficacy, Echinochloa crusgalli: 10
[6]; 250 g/ha, scale 0 to 10
  Herbicidal efficacy, Echinochloa crusgalli: 10
[6]; [20]
  Herbicidal efficacy, Echinochloa crusgalli: 10
[7]; 62.5 g/ha
  Herbicidal efficacy, Digitaria sanguinalis: 9
[7]; 125 g/ha
  Herbicidal efficacy, Digitaria sanguinalis: 10
[7]; 250 g/ha
  Herbicidal efficacy, Digitaria sanguinalis: 10
[7]; 500 g/ha
  Herbicidal efficacy, Digitaria sanguinalis: 10
[8]; 62.5 g/ha
  Herbicidal efficacy, Poa annua: 8
[8]; 125 g/ha
  Herbicidal efficacy, Poa annua: 9
[8]; 250 g/ha
  Herbicidal efficacy, Poa annua: 10
[8]; 500 g/ha
  Herbicidal efficacy, Poa annua: 10
[9]; 62.5 g/ha
  Herbicidal efficacy, Alopecurus myosuroides: 2
[9]; 125 g/ha
  Herbicidal efficacy, Alopecurus myosuroides: 3
[9]; 250 g/ha
  Herbicidal efficacy, Alopecurus myosuroides: 6
[9]; 500 g/ha
  Herbicidal efficacy, Alopecurus myosuroides: 10
[10]
  Phytotoxicity, Corn: 2
[11]
  Phytotoxicity, Soybean: 1
[12]
  Phytotoxicity, Cotton: 1
[13]
  Phytotoxicity, Wheat: 1
[14]
  Phytotoxicity, Rice: 1
[15]; post-emergence, 125 g/ha
  Herbicidal efficacy, Echinochloa crusgalli: 0
[15]; post-emergence, 250 g/ha
  Herbicidal efficacy, Echinochloa crusgalli: 5
[15]; post-emergence, 500 g/ha
  Herbicidal efficacy, Echinochloa crusgalli: 8
[15]; post-emergence, 1,000 g/ha
  Herbicidal efficacy, Echinochloa crusgalli: 10
[16]; post-emergence, 125 g/ha
  Herbicidal efficacy, Digitaria sanguinalis: 5
[16]; post-emergence, 250 g/ha
  Herbicidal efficacy, Digitaria sanguinalis: 5
[16]; post-emergence, 500 g/ha
  Herbicidal efficacy, Digitaria sanguinalis: 6
[16]; post-emergence, 1,000 g/ha
  Herbicidal efficacy, Digitaria sanguinalis: 10
[17]; post-emergence, 125 g/ha
  Herbicidal efficacy, Poa annua: 5
[17]; post-emergence, 250 g/ha
  Herbicidal efficacy, Poa annua: 8
[17]; post-emergence, 500 g/ha
  Herbicidal efficacy, Poa annua: 8
[17]; post-emergence, 1,000 g/ha
  Herbicidal efficacy, Poa annua: 10
[18]; post-emergence, 125 g/ha
  Herbicidal efficacy, Alopecurus myosuroides: 1
[18]; post-emergence, 250 g/ha
  Herbicidal efficacy, Alopecurus myosuroides: 5
[18]; post-emergence, 500 g/ha
  Herbicidal efficacy, Alopecurus myosuroides: 7
[18]; post-emergence, 1,000 g/ha
  Herbicidal efficacy, Alopecurus myosuroides: 9
[19]
  efficacy stronger than the References: about 4 times

## CC1(COCc2c(F)cccc2Cl)CC(c2ccccc2Cl)=NO1 (stereo not shown) [Reference B]
[1]
  Phytotoxicity, Corn: 0
[2]
  Phytotoxicity, Soybean: 0
[3]
  Phytotoxicity, Cotton: 0
[4]
  Phytotoxicity, Wheat: 0
[5]
  Phytotoxicity, Rice: 0
[6]; 62.5 g/ha, scale 0 to 10
  Herbicidal efficacy, Echinochloa crusgalli: 2
[6]; 125 g/ha, scale 0 to 10
  Herbicidal efficacy, Echinochloa crusgalli: 5
[6]; 250 g/ha, scale 0 to 10
  Herbicidal efficacy, Echinochloa crusgalli: 7
[6]; [20]
  Herbicidal efficacy, Echinochloa crusgalli: 10
[7]; 62.5 g/ha
  Herbicidal efficacy, Digitaria sanguinalis: 0
[7]; 125 g/ha
  Herbicidal efficacy, Digitaria sanguinalis: 4
[7]; 250 g/ha
  Herbicidal efficacy, Digitaria sanguinalis: 8
[7]; 500 g/ha
  Herbicidal efficacy, Digitaria sanguinalis: 9
[8]; 62.5 g/ha
  Herbicidal efficacy, Poa annua: 2
[8]; 125 g/ha
  Herbicidal efficacy, Poa annua: 4
[8]; 250 g/ha
  Herbicidal efficacy, Poa annua: 8
[8]; 500 g/ha
  Herbicidal efficacy, Poa annua: 10
[9]; 62.5 g/ha
  Herbicidal efficacy, Alopecurus myosuroides: 0
[9]; 125 g/ha
  Herbicidal efficacy, Alopecurus myosuroides: 0
[9]; 250 g/ha
  Herbicidal efficacy, Alopecurus myosuroides: 3
[9]; 500 g/ha
  Herbicidal efficacy, Alopecurus myosuroides: 10
[10]
  Phytotoxicity, Corn: 0
[11]
  Phytotoxicity, Soybean: 2
[12]
  Phytotoxicity, Cotton: 0
[13]
  Phytotoxicity, Wheat: 0
[14]
  Phytotoxicity, Rice: 0
[15]; post-emergence, 125 g/ha
  Herbicidal efficacy, Echinochloa crusgalli: 0
[15]; post-emergence, 250 g/ha
  Herbicidal efficacy, Echinochloa crusgalli: 0
[15]; post-emergence, 500 g/ha
  Herbicidal efficacy, Echinochloa crusgalli: 1
[15]; post-emergence, 1,000 g/ha
  Herbicidal efficacy, Echinochloa crusgalli: 7
[16]; post-emergence, 125 g/ha
  Herbicidal efficacy, Digitaria sanguinalis: 0
[16]; post-emergence, 250 g/ha
  Herbicidal efficacy, Digitaria sanguinalis: 5
[16]; post-emergence, 500 g/ha
  Herbicidal efficacy, Digitaria sanguinalis: 6
[16]; post-emergence, 1,000 g/ha
  Herbicidal efficacy, Digitaria sanguinalis: 8
[17]; post-emergence, 125 g/ha
  Herbicidal efficacy, Poa annua: 0
[17]; post-emergence, 250 g/ha
  Herbicidal efficacy, Poa annua: 1
[17]; post-emergence, 500 g/ha
  Herbicidal efficacy, Poa annua: 4
[17]; post-emergence, 1,000 g/ha
  Herbicidal efficacy, Poa annua: 6
[18]; post-emergence, 125 g/ha
  Herbicidal efficacy, Alopecurus myosuroides: 0
[18]; post-emergence, 250 g/ha
  Herbicidal efficacy, Alopecurus myosuroides: 0
[18]; post-emergence, 500 g/ha
  Herbicidal efficacy, Alopecurus myosuroides: 0
[18]; post-emergence, 1,000 g/ha
  Herbicidal efficacy, Alopecurus myosuroides: 3
